Assay results: patent US20240271138A1, “METHODS AND COMPOSITIONS FOR MODULATING STING SIGNALING AND INNATE IMMUNE RESPONSES” (The Broad Institute, Inc., priority 2021, published 2024)

Test system: STING association with ESCRT (HGS, VPS37A) and TBK1
Experiment: STING-TurboID proximity biotin labeling and streptavidin pull-down in 293T
Assay type: cell-based, human
Settings: 293T STING-TurboID; 3 hours; 0.5 μM MLN7243; FIG. 5C
Protocol: Generation of cells and stimulation. 293T cells were transduced with pTRIP-hPGK-Blast-2A-STING-TurboID and selected with 15 μg/mL Blasticidin (Invivogen) for one week. To test the construct via pull-down, 0.8 million cells were seeded in a 6 well plate. The following day, cells were permeabilized with 300 μl/well of cGAMP permeabilization buffer [50 mM HEPES (Corning), 100 mM KCl (Thermo Fisher), 3 mM MgCl2 (Thermo Fisher), 0.1 mM DTT (Thermo fisher), 85 mM Sucrose (Thermo Fisher), 0.5 mM ATP (Cayman chemicals), 0.1 mM GTP (Cayman Chemicals), 0.2% BSA (Seracare), 0.001% Digitonin (Promega)| containing 1 μg/mL 2′3′-cGAMP (Invivogen) or water for 10 minutes at 37° C., washed with 3 mL of warm medium and then medium was replaced. For mass-spec, 6 million cells were seeded in a 10 cm dish for each condition. Cells were stimulated with 2.8 mL of cGAMP permeabilization buffer containing 6 μg total of cGAMP per dish. Cells were left stimulating for the desired times and 500 μM biotin (Cayman chemicals) was added in each well 30 minutes prior to harvest. Cells were harvested by trypsinization, washed 3 times in cold PBS and pellets were frozen until processing. For experiments in 6 well plates, 3 wells per condition were harvested. For experiments in 10 cm dishes, one dish per condition was harvested.
Pull-down. […]

SMILES: NS(=O)(=O)OC[C@H]1C[C@@H](Nc2ccnc3cc(-c4cccc(SC(F)(F)F)c4)nn23)[C@H](O)[C@@H]1O [MLN7243]
- biotin labeling of HGS and VPS37A by STING-TurboID: reduced the biotin labeling of HGS and VPS37A
- biotin labeling of TBK1 by STING-TurboID: unaffected
